Measurements reported in PMC6562422, “Huzhangoside A Suppresses Tumor Growth through Inhibition of Pyruvate Dehydrogenase Kinase Activity” (Cancers, 2019).

Legend:
[1] = test system: Hep3B cells; test: MTT cell viability assay; type: cell-based, human; conditions: 3 μM, 24 h
[2] = test system: DLD-1 cells; test: Lactate production assay; type: cell-based, human
Experimental: Lactate in the cell culture medium was analyzed by a lactate fluorometric assay kit (Biovision, Milpitas, CA, USA) and measured using the Spectramax M2 microplate reader at 570 nm.

[3] = test system: HL-60; set-up: method as in PMID 19952458; conditions: read-out: IC50 against human cancer cell line; cited from earlier work
[4] = molecular target: T1, PDHK1 (Homo sapiens, UniProt Q15118); test: ATP-binding assay; conditions: His-tagged PDHK1 on Ni-NTA beads, 37 °C
T1 construct: made in house; host or cells: Escherichia coli BL21(DE3)
T1 sequence (Q15118 29-436): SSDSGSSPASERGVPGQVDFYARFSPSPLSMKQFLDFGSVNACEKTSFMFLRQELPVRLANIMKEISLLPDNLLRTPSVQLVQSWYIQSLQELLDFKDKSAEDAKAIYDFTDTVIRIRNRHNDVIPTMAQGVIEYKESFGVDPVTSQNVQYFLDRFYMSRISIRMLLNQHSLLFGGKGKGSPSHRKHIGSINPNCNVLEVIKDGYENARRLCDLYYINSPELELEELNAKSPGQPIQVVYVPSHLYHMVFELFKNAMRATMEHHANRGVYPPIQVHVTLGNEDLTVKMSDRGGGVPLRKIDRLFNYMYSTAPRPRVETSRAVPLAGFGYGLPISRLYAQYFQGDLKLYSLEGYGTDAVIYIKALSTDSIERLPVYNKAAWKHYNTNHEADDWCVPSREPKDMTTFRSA
Experimental: The cloned PDHK1 was expressed in Escherichia coli BL21(DE3). The overexpressed protein was purified using affinity chromatography and gel filtration chromatography. The purified His-tagged PDHK1 was bound to Ni-NTA beads in binding buffer (20 mM HEPES-K^+ (pH 7.2) and 0.05% BSA) at 4 °C. The Ni-NTA beads with bound His-tagged PDHK1 were washed with the binding buffer followed by incubation with [α-^32P]ATP, ATP, and Hu.A at 37 °C. The beads were then washed with wash buffer (PBS). The bead-bound PDHK1 protein was achieved by 250 mM imidazole, and its radioactivity was detected by liquid scintillation counting.

[5] = test system: LLC cell allograft; test: LLC tumor allograft in C57BL/6 mice; type: in vivo
Experimental: LLC cells (5 × 10^5 cells/100 μL PBS) were injected into the dorsal subcutaneous skin of C57BL/6 mice (n = 8 mice per group). The control (untreated) group and Hu.A-treated groups were administered 0 mg/kg and 0.1 mg/kg, 0.5 mg/kg, and 1 mg/kg of Hu.A in 100 μL PBS/20 g via intraperitoneal (i.p.) injection for 14 days, respectively. The mice were killed 14 days after inoculation of LLC cells and the tumors were seceded from the mice and analyzed. The volumes of LLC cell derived-tumors were calculated using the formula ((length × width^2)/2).
For immunohistochemical analysis, the tumor tissues were fixed with 3.7% formalin in PBS and embedded in paraffin. The paraffin sections were incubated with a primary antibody against the Ki-67, a cell proliferation marker, and visualized via Dako EnVision kit (Dako, Jena, Germany). The sections were counterstained with hematoxylin.

[6] = test system: MDA-MB-231 cells; test: MTT cell viability assay; type: cell-based, human; conditions: 3 μM, 24 h
[7] = test system: HSC-4; set-up: method as in PMID 19952458; conditions: read-out: IC50 against human cancer cell line; cited from earlier work
[8] = test system: A549; set-up: method as in PMID 19952458; conditions: read-out: IC50 against human cancer cell line; cited from earlier work
[9] = molecular target: T2, GST-PDHK1 (Homo sapiens, UniProt Q15118); test: In vitro PDHK kinase assay (GST-PDHK1, recombinant PDHA, western blot); type: biochemical; conditions: phosphorylation of recombinant PDHA by western blot
T2 construct: expressed in transfected cells; host or cells: HEK293T
T2 sequence (Q15118 29-436): as above
Experimental: The kinase assay of PDHK1 was carried out as described previously. Briefly, HEK293T cells, transfected with GST-PDHK1 construct, were lysed, and the lysate was incubated with Glutathione Sepharose 4B beads (Amersham Biosciences, Uppsala, Sweden). The beads were washed and recombinant PDHA was added and incubated for 5 min at 30 °C in the kinase buffer. The phosphorylation of PDHA was analyzed by western blot analysis.

[10] = Blood biochemistry of tumor-bearing mice; type: in vivo, C57BL/6 mice; conditions: serum; for Creatinine: below limit of detection; for BUN: mean ± SD (control 8.6 ± 0.8); for ALT: mean ± SD (control 14.8 ± 2.5); for AST: mean ± SD (control 79.8 ± 35.3)
Experimental: The blood sera were collected from the retro-orbital plexus of tumor-bearing mice treated with Hu.A. The levels of AST, ALT, BUN, and creatinine were analyzed by a commercial service provided by Green Cross Co. (Yongin, Korea).

[11] = test system: HSC-2; set-up: method as in PMID 19952458; conditions: read-out: IC50 against human cancer cell line; cited from earlier work
[12] = test system: HT-29 cells; test: MTT cell viability assay; type: cell-based, human; conditions: 3 μM, 24 h
[13] = test system: LLC cells; test: MTT cell viability assay; type: cell-based, murine; conditions: 3 μM, 24 h, serum free medium
Experimental: (§1) The cytotoxic effect of Hu.A was confirmed using a MTT assay. Briefly, DLD-1 cells (10^5 cells per well) were seeded in a 24-well plate and incubated overnight. The cells were then shifted to serum-free media and treated with Hu.A. MTT solution (2 mg/mL) was then added to the cells. The absorbance of formazan crystals formed were measured using a Spectramax M2 microplate reader (Molecular Devices, Sunnyvale, CA, USA) at 540 nm.
Supplementary materials Huzhangoside A Suppresses Tumor
Growth through Inhibition of Pyruvate
Dehydrogenase Kinase Activity
Choong-Hwan Kwak, Jung-Hee Lee, Eun-Yeong Kim, Chang Woo Han, Keuk-Jun Kim, Hanna Lee, MyoungLae Cho, Se Bok Jang, Cheorl-Ho Kim, Tae-Wook Chung and Ki-Tae Ha
Figure S1. Hu.A inhibited cell viability and phosphorylation of PDHA in LLC cells. (A) The LLC cells were treated with indicated concentrations of Hu.A in serum free medium for 24 h and MTT assay was performed. The data was indicated as mean ± SD. * p < 0.05 and *** p < 0.001 compared with the control. (B) In serum free condition, the LLC cells were treated with indicated concentrations of Hu.A for 4 h. The levels of phosphor-PDHA and total PDHA were analyzed by Western blotting assay. (C) Schematic diagram of the mechanisms of Hu.A-mediated apoptosis was shown. The red circle and white P indicated phosphates. […]

[14] = test system: DLD-1 cells; test: O2 consumption assay; type: cell-based, human; conditions: serum-free medium, 6 h
Experimental: The O2 consumption rate was determined using the Oxygen Consumption Rate Assay Kit (Cayman Chemical, Ann Arbor, MI, USA) following the manufacturer’s protocol. The fluorescence of the oxygen probe was measured using the Spectramax M2 microplate reader at wavelengths of 380/650 nm.

[15] = test system: PDHK1-4; test: PDHK1-4 protein expression (western blot) in DLD-1 cells; type: cell-based, human; conditions: serum-free medium, 4 h
Experimental: Figure 2 Hu.A reduced the PDHK1 activity and promoted oxidative phosphorylation (OXPHOS) in DLD-1 cells. (A) In vitro PDHK1 kinase assay was performed. (B, C) DLD-1 cells were treated with Hu.A in serum-free medium for 4 h. The levels of phosphorylated pyruvate dehydrogenase E1α subunit (PDHA) (B), and PDHK1-4 (C) were analyzed using western blot assay. PDHA (B) and GAPDH (C) were used as loading controls. (D) The intensity of bands (PDHK1-4/GAPDH) from three independent experiments was measured and indicated by mean ± SD. (E) DLD-1 cells were treated with Hu.A in serum-free medium for 6 h. O2 consumption rate was measured by using commercially available Oxygen Consumption Rate Assay Kit. (F) Lactate production was measured by lactate fluorometric assay kit (right panel). The data are shown as mean ± SD, respectively. **, p < 0.01 compared with control.
Western blotting assay was carried out as described previously. Briefly, equal amounts (20 μg) of the cell lysates were separated by sodium dodecyl sulfate–polyacrylamide gel electrophoresis and were transferred onto the nitrocellulose membrane (Hybond ECL; GE Healthcare). The membrane was incubated with specific antibodies. The bands of the target proteins were detected using ECL Plus reagent and ImageQuant LAS 4000 (GE Healthcare, Menlo Park, CA, USA).

[16] = molecular target: T3, PDHK and PDC E2 subunit (Homo sapiens, UniProt Q15118); test: PDC subunits and PDHK binding assay; conditions: 500 μM Hu.A, GST-PDHK1 pull-down, HEK293T lysate
T3 construct: expressed in transfected cells; host or cells: HEK293T (GST-PDHK1 transfected; E2 endogenous from HEK293T whole cell lysate)
T3 sequence (Q15118 29-436): as above
T3 sequence (P10515 87-647 partner): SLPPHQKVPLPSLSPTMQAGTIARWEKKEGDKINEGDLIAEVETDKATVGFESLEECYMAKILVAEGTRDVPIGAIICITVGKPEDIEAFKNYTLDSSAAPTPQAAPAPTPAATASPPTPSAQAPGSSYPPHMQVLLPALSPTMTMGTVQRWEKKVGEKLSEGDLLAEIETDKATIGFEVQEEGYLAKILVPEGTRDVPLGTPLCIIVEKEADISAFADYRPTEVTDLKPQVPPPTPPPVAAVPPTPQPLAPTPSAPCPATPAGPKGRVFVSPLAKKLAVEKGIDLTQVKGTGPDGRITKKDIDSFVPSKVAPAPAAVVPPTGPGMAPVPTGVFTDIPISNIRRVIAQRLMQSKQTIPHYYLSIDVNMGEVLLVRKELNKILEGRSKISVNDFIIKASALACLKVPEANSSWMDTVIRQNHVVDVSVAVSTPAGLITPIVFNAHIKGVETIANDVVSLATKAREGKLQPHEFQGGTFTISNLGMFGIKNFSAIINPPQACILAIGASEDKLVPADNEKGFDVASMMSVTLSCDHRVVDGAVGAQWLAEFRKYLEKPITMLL
Experimental: HEK293T cells, transfected with GST-PDHK1 construct, were lysed and incubated with Glutathione Sepharose 4B beads. The beads were washed and HEK293T whole cell lysate was added with/without 500 μM of Hu.A and the samples were analyzed by western blot analysis.

[17] = test system: DLD-1 cells; test: MTT cell viability assay; type: cell-based, human
Experimental: as §1

[18] = molecular target: T1, PDHK1; conditions: read-out: IC50 for inhibiting PDHK1 activity; cited from earlier work
[19] = molecular target: T1, PDHK1; conditions: cited from earlier work
[20] = test system: tumor growth; conditions: JX06 is ref 12; cited from earlier work

For `CC1OC(OC2C(OC3CCC4(C)C(CCC5(C)C4CC=C4C6CC(C)(C)CCC6(C(=O)O)CCC45C)C3(C)C)OCC(O)C2O)C(O)C(OC2OCC(O)C(O)C2O)C1O` (stereo not drawn) [Hu.A, Huzhangoside A], which cytotoxic effect [1] is on record?
The cytotoxic effect was “more than 80%”.

What about the “secretory lactate levels in media” value [2] of the same compound?
Its value is “reduced”.

And the IC50 [3]?
Its IC50 is 2300 nM.

What about the “[α-32P]ATP-binding activity of PDHK1” value [4] of the same compound?
The value was “decreased”.

And the “levels of cleaved forms of caspase-3, -9, and PARP in tumor tissues” value ([5]; 1 mg/kg, western blot)?
Its value is “increased”.

And the “growth of the allograft LLC cells (tumor volume and weight)” value ([5]; 0.1, 0.5 and 1 mg/kg/day i.p., dose-dependent)?
Its value is “significantly suppressed”.

And the “staining of Ki-67 in tumor tissues” value ([5]; immunohistochemistry, Hu.A-treated mice)?
The value was “reduced”.

And the “phosphor-PDHA levels in tumor tissues” value ([5]; western blot, Hu.A-treated mice)?
Its value is “markedly decreased”.

What about the cytotoxic effect [6] of the same compound?
The cytotoxic effect was “more than 80%”.

What about the IC50 [7] of the same compound?
The IC50 was 11700 nM.

And the IC50 [8]?
Its IC50 is 1500 nM.

What about the “kinase activity of GST-PDHK1” value [9] of the same compound?
Its value is “significantly inhibited”.

What about the Creatinine ([10]; 0.1 mg/kg i.p.) of the same compound?
Its Creatinine is less than 0.17 mg/dL.

And the BUN ([10]; 0.1 mg/kg i.p.)?
Its BUN is 8.8 ± 0.9 mg/dL.

And the ALT ([10]; 0.1 mg/kg i.p.)?
Its ALT is 16.7 ± 2.5 U/L.

And the AST ([10]; 0.1 mg/kg i.p.)?
The AST was 94.5 ± 41.0 U/L.

And the Creatinine ([10]; 0.5 mg/kg i.p.)?
Its Creatinine is less than 0.17 mg/dL.

What about the BUN ([10]; 0.5 mg/kg i.p.) of the same compound?
Its BUN is 8.9 ± 0.6 mg/dL.

What about the ALT ([10]; 0.5 mg/kg i.p.) of the same compound?
The ALT was 19.2 ± 5.6 U/L.

And the AST ([10]; 0.5 mg/kg i.p.)?
Its AST is 87.5 ± 33.8 U/L.

What about the Creatinine ([10]; 1 mg/kg i.p.) of the same compound?
Its Creatinine is less than 0.17 mg/dL.

And the BUN ([10]; 1 mg/kg i.p.)?
Its BUN is 8.4 ± 1.0 mg/dL.

What about the ALT ([10]; 1 mg/kg i.p.) of the same compound?
The ALT was 19.6 ± 3.1 U/L.

What about the AST ([10]; 1 mg/kg i.p.) of the same compound?
The AST was 95.2 ± 43.1 U/L.

And the IC50 [11]?
The IC50 was 5700 nM.

What about the cytotoxic effect [12] of the same compound?
Its cytotoxic effect is “more than 80%”.

What about the cytotoxic effect [13] of the same compound?
Its cytotoxic effect is “more than 80%”.

And the O2 consumption rate [14]?
The O2 consumption rate was “increased”.

What about the “protein levels of PDHK isozymes (PDHK1-4)” value [15] of the same compound?
The value was “did not significantly change”.

What about the “binding of PDHK and PDC E2 subunit” value [16] of the same compound?
Its value is “did not significantly affect”.

What about the cytotoxic effect ([17]; 3 μM, 24 h) of the same compound?
Its cytotoxic effect is “more than 80%”.

What about the “cytotoxic effect of Hu.A after MitoTEMPO pre-treatment” value ([17]; DLD-1, MitoTEMPO 50 μM 1 h pre-treatment, then 3 μM Hu.A 6 h, serum-free) of the same compound?
Its value is “significantly reduced”.

For `S=C(SSC(=S)N1CCOCC1)N1CCOCC1` [JX06], which IC50 [18] is on record?
The IC50 was 49 nM.

What about the “concentration administered to suppress the intracellular PDHK1 activity” value [19] of the same compound?
The value was 10 µM.

What about the “concentration required for inhibition of tumor growth in in vivo experiments” value [20] of the same compound?
Its value is 40 to 80 mg/kg.

For `C[C@@H]1C[C@H]2O[C@@H]2/C=C\C=C\C(=O)Cc2c(Cl)c(O)cc(O)c2C(=O)O1` [radicicol], which “concentration administered to suppress the intracellular PDHK1 activity” value [19] is on record?
The value was 10 µM.
